# Measurements from US10300059B2, “Pharmaceutical composition and therapeutic combination comprising a cholesteryl ester transfer protein inhibitor and HMG CoA reductase inhibitors” (DEZIMA PHARMA B.V., priority 2014, dated 2019).
# Where two headings read alike, the source gives them in different places.
# Tests used:
# fasted healthy subjects = details: 200 mg once daily; cited from earlier work
# patients [1] = details: 150 mg once daily; cited from earlier work
# [2] = in humans; accumulates in fat tissue; cited from earlier work
# [3] = data from phase 2 studies; cited from earlier work
# [4] = test system: patients with mild dyslipidemia; assay: Double-blind, placebo-controlled phase 2 trial: fasted lipid profile after 12 weeks; format: in vivo, human
# Procedure: In a double-blind, placebo controlled clinical study the effects of 12 weeks of administration of Compound A alone and in combination with statins in patients with mild dyslipidemia was examined. […] Patients were recruited at 20 sites in the Netherlands and Denmark. The trial was approved by Independent Ethics Committees, and each patient provided written informed consent. The trial was conducted in accordance with the principles of the Declaration of Helsinki and Good Clinical Practice Guidelines and the protocol was registered on ClinicalTrials.gov (NCT01970215). The trial consisted of a screening visit, followed by a run-in phase of 4 weeks (or 6 weeks for patients that required a washout of existing lipid-lowering therapy). […] All treatments were to be taken once daily with food for 12 weeks. […] Follow-up visits were conducted 2 and 8 weeks after the end of treatment. Safety was assessed throughout the trial by monitoring adverse events and concomitant medication use, 12-lead electrocardiograms (ECGs), vital signs, laboratory safety assessments and physical examinations. Additional assessments included salivary cortisol, plasma aldosterone, high-sensitivity C-reactive protein (hsCRP) and endothelin 1. Efficacy assessments included fasted lipid profiles including total cholesterol (TC), HDL-C, LDL-C, triglycerides, apolipoproteins AI, B and E (ApoAI, Apo B and ApoE), lipoprotein a (Lp[a]) and derived parameters. […] Blood samples were collected for pharmacokinetic analysis of Compound A. Total cholesterol and triglycerides were measured by homogenous enzymatic assay using a Modular analyser (cholesterol oxidase peroxidase-peroxidase aminophenazone phenol [CHOP-PAP]) method and a glycerol phosphate oxidase [GPO-PAP] method, respectively. […] Lp(a) was measured by immunoturbidimetry using reagents and standards from Wako Chemicals (Germany). LDL particle size was determined by gradient gel electrophoresis. HDL fraction was separated by a combined ultracentrifugation-precipitation method ((β-quantification). HDL-2 and HDL-3 fractions were then separated by further ultracentrifugation. […] The measurements were performed on an Olympus AU600 automatic analyzer and were calibrated using secondary standards from Roche Diagnostics (total-cholesterol, triglycerides) and Diasys Diagnostics (free cholesterol, phospholipids), respectively. Esterified cholesterol was calculated as the difference between total-cholesterol and free cholesterol. […] The primary and secondary efficacy analyses were performed using an analysis of covariance (ANCOVA) model with treatment and use of statin therapy at randomisation as factors and the baseline value for the respective efficacy variable as a covariate. Least-squares means, standard errors and 2-tailed 95% confidence intervals for each treatment group and for pairwise comparisons between Compound A doses and placebo, between Compound A plus atorvastatin and atorvastatin alone, and between Compound A plus rosuvastatin and rosuvastatin alone were provided. As there were two co-primary efficacy variables, a closed testing procedure was used in order to control the family-wise error. No interim analyses were planned or conducted.
# [5] = test system: patients with mild dyslipidemia; assay: Serum-driven cholesterol efflux, baseline versus week 12 of the phase 2 trial; format: in vivo, human; details: p<0.0001
# Excerpt: Bars are means and error bars are standard deviations. The baseline data only includes patients who had both baseline and week 12 data.
# In this Figure baseline and week 12 data for serum-driven cholesterol efflux is shown. Bars are means and error bars are standard deviations. The baseline data only includes patients who had both baseline and week 12 data.
# [6] = in vivo; cited from earlier work
# patients [7] = details: 500 mg once daily monotherapy in patients; cited from earlier work
# endothelin-1 = details: animal studies; cited from earlier work
# [8] = cited from earlier work
# [9] = atorvastatin (20 mg) once daily
# [10] = 2.5 mg of Compound A once daily
# [11] = rosuvastatin (10 mg) once daily
compound,measurement,setting,value
"COc1cc(F)c(C(C)C)cc1-c1ccc(C(F)(F)F)cc1CN1C(=O)O[C@H](c2cc(C(F)(F)F)cc(C(F)(F)F)c2)[C@@H]1C [Anacetrapib, anacetrapib]",decrease of LDL-C,fasted healthy subjects,36%
same,increase of HDL C,fasted healthy subjects,97%
same,decrease of LDL-C,patients [1],40%
same,increase of HDL C,patients [1],139%
same,half life,[2],2-4 years
same,mineralocorticoid activity,[3],without mineralocorticoid activity
"CC(C)c1c(C(=O)Nc2ccccc2)c(-c2ccccc2)c(-c2ccc(F)cc2)n1CC[C@@H](O)C[C@@H](O)CC(=O)O [Atorvastatin, atorvastatin]","HDL-C, percentage change at Week 12 compared to baseline",[4]; [9],1.27
same,"LDL-C, percentage change at Week 12 compared to baseline",[4]; [9],−46.73
same,"Lp(a), percentage change at Week 12 compared to baseline",[4]; [9],−4.46
"CCOC(=O)N1c2ccc(C(F)(F)F)cc2[C@@H](N(Cc2cc(C(F)(F)F)cc(C(F)(F)F)c2)c2ncc(OCCCC(=O)O)cn2)C[C@H]1CC [Compound A, {4-[(2-{[3,5-bis(trifluoromethyl)benzyl][(2R,4S)-1-(ethoxycarbonyl)-2-ethyl-6-(trifluoromethyl)-1,2,3,4-tetrahydroquinolin-4-yl]amino}pyrimidin-5-yl)oxy]butanoic acid}]","HDL-C, percentage change at Week 12 compared to baseline",[4]; 1 mg of Compound A once daily,76.04
same,"LDL-C, percentage change at Week 12 compared to baseline",[4]; 1 mg of Compound A once daily,−27.05
same,"Lp(a), percentage change at Week 12 compared to baseline",[4]; 1 mg of Compound A once daily,−28.81
same,"HDL-C, percentage change at Week 12 compared to baseline",[4]; [10],122.28
same,"LDL-C, percentage change at Week 12 compared to baseline",[4]; [10],−34.38
same,"Lp(a), percentage change at Week 12 compared to baseline",[4]; [10],−26.69
same,"HDL-C, percentage change at Week 12 compared to baseline",[4]; 5 mg of Compound A once daily,160.90
same,"LDL-C, percentage change at Week 12 compared to baseline",[4]; 5 mg of Compound A once daily,−47.49
same,"Lp(a), percentage change at Week 12 compared to baseline",[4]; 5 mg of Compound A once daily,−37.33
same,"HDL-C, percentage change at Week 12 compared to baseline",[4]; 10 mg of Compound A once daily,180.64
same,"LDL-C, percentage change at Week 12 compared to baseline",[4]; 10 mg of Compound A once daily,−47.26
same,"Lp(a), percentage change at Week 12 compared to baseline",[4]; 10 mg of Compound A once daily,−34.86
same,increase in the ability of serum to promote cholesterol efflux,[5]; 1 mg of Compound A,16.9%
same,increase in serum-mediated cholesterol efflux,[5]; 10 mg dose of Compound A,36.7%
"CCC(CC)CC1(C(=O)Nc2ccccc2SC(=O)C(C)C)CCCCC1 [Dalcetrapib, dalcetrapib]",effects on LDL-C concentrations,[6],minimal effects
same,increase of HDL-C,[6],30-40%
"Cc1cc(C)c2c(c1)[C@@H](N(Cc1cc(C(F)(F)F)cc(C(F)(F)F)c1)c1nnn(C)n1)CCCN2C[C@H]1CC[C@H](C(=O)O)CC1 [Evacetrapib, evacetrapib]",decrease of LDL-C,patients [7],36%
same,increase of HDL-C,patients [7],129%
same,mineralocorticoid activity,[3],without mineralocorticoid activity
"CC(C)c1nc(N(C)S(C)(=O)=O)nc(-c2ccc(F)cc2)c1/C=C/[C@@H](O)C[C@@H](O)CC(=O)O [Rosuvastatin, rosuvastatin]","HDL-C, percentage change at Week 12 compared to baseline",[4]; [11],6.16
same,"LDL-C, percentage change at Week 12 compared to baseline",[4]; [11],−47.36
same,"Lp(a), percentage change at Week 12 compared to baseline",[4]; [11],−7.79
"CCOC(=O)N1c2ccc(C(F)(F)F)cc2[C@@H](N(Cc2cc(C(F)(F)F)cc(C(F)(F)F)c2)C(=O)OC)C[C@H]1CC [Torcetrapib, torcetrapib]",expression of endothelin-1,endothelin-1,increases expression of endothelin-1
same,off-target effects,[8]; consistent with mineralocorticoid activity,"increased blood pressure, changes in electrolytes (increases in sodium and bicarbonate and decreases in potassium) and increases in aldosterone"
same,decrease of LDL-C,[8]; dosed at 60 mg,25%
same,increase of HDL-C,[8]; dosed at 60 mg,72%
same,safety concerns,[8]; in combination with the HMG CoA reductase inhibitor atorvastatin,unexpected increase in cardiovascular events and death
